Test results: patent publication US20240252463A1, “METHODS OF TREATING FIBROTIC PATHOLOGIES” (Mayo Foundation for Medical Education and Research, priority 2018, published 2024)
Counter-ions that a name gives are not always drawn. Like-named read-outs stand apart in the source and are kept apart here.

What was measured:
[1] = test system: YAP/TAZ-TEAD interactions; details: Ref. 19; cited from earlier work
αSMA = αSMA intensity (fibroblast activation) in IPF patient-derived lung fibroblasts + TGFβ; format: cell-based, human; details: Homo sapiens, SMA, 1 μM + TGFβ, treated for 72 hours
Procedure: (§1) ImmunofluorescenceMicroscopy: Cells were plated into 96 well plates (Corning 3603) in their specific growth media and allowed to attach (8 hours). Media was then exchanged for the indicated conditions for each experiment. Cells were fixed in 3.7% formalin (Sigma-Aldrich), permeabilized in 0.25% Triton X-100 (Sigma-Aldrich) and then blocked with 1% BSA for 1 h. Cells or tissue sections were incubated overnight with mouse monoclonal antibody against αSMA (Sigma-Aldrich F3777), and/or a rabbit monoclonal antibody against YAP/TAZ (Cell Signaling D24E4) diluted 1:200 in PBS with 1% BSA. Cells were then washed and exposed to flourescence-conjugated secondary antibodies (Invitrogen) diluted 1:1000 and DAPI (Thermo Fisher Scientific). Images were taken with a Cytation5 (BioTek) microscope. For scoring αSMA positive cells (FIG. 3b), an observer blinded to the treatment conditions counted αSMA-positive cells using a visual threshold for bright fibrous staining; a minimum of 200 cells was counted for each condition. YAP/TAZ localization was quantified (FIG. 2, 6, 8) using Gen5 (Biotek) software. Images were taken at 4× magnification of both DAPI and YAP/TAZ staining. […] Quantification of double positive (YAP/TAZ and αSMA) cells from lung tissue sections (FIG. 4d) was performed similarly; however separate thresholds were established for both YAP/TAZ and αSMA. A minimum of 4000 cells was quantified for each mouse.

αSMA+ stress fibers = experiment: TGFβ-induced αSMA+ stress fiber formation; format: cell-based, human; details: TGFβ 48 hours, then dopamine 1 μM + TGFβ 24 hours
Procedure: ImmunofluorescenceMicroscopy: Cells were plated into 96 well plates (Corning 3603) in their specific growth media and allowed to attach (8 hours). Media was then exchanged for the indicated conditions for each experiment. Cells were fixed in 3.7% formalin (Sigma-Aldrich), permeabilized in 0.25% Triton X-100 (Sigma-Aldrich) and then blocked with 1% BSA for 1 h. Cells or tissue sections were incubated overnight with mouse monoclonal antibody against αSMA (Sigma-Aldrich F3777), and/or a rabbit monoclonal antibody against YAP/TAZ (Cell Signaling D24E4) diluted 1:200 in PBS with 1% BSA.

[2] = test system: IPF patient derived fibroblasts; experiment: Traction Force Microscopy of IPF patient derived fibroblasts; format: cell-based, human; details: IPF fibroblasts on 6.4 kPa matrices
Procedure: Traction Force Microscopy: Traction analysis was conducted as previously described. Briefly, polyacrylamide substrates with shear moduli of 6.4 kPa were prepared, and fluorescent sulfate-modified latex microspheres (0.2 μm, 505/515 ex/em) (FluoSpheres, Life Technologies) were conjugated to the gel surfaces after treatment with 1 mg ml^−1 of dopamine hydrochloride (Sigma-Aldrich) in 50 mM HEPES solution (pH 8.5). IPF patient derived fibroblasts were plated on the gels overnight and treated as indicated before traction force measurements. Images of gel surface-conjugated fluorescent beads were acquired for each cell before and after trypsinization using a Nikon ECLIPSE Ti microscope at ×10 magnification. Traction forces were estimated by measuring bead displacement fields and computing corresponding traction fields using TractionsForAll (freely distributed program that calculates 2-D tractions exerted by an adherent cell on its substrate).

YAP/TAZ = YAP/TAZ nuclear localization (immunofluorescence, automated imaging) in IPF patient-derived lung fibroblasts; format: cell-based, human
Procedure: 27A. […] IPF patient-derived lung fibroblasts cells treated 2 hours prior to fixation with diverse dopaminergic agonists (10 μM). N=4 different patient samples. % nuclear localization of YAP/TAZ was determined using automated imaging software. Scale bar represents 100 μm. 27C. cAMP measured in IPF patient-derived fibroblasts treated for 20 minutes with DHX. N=3. 27E.
as §1

human dermal fibroblasts = experiment: Profibrotic gene expression in human dermal fibroblasts +/- TGFβ; format: cell-based; details: 24 hours +/− 2 ng/mL TGFβ
Procedure: Human dermal fibroblasts treated for 24 hours+/−2 ng/mL TGFβ and D1 agonists: DHX and A68930 prior to RNA isolation. N=2. For all other in vitro experiments, cells were treated as indicated prior to RNA isolation using RNeasy Plus Mini Kit (Qiagen) according to manufacturer's instructions. Isolated RNA (250 ng) was then used to synthesize cDNA using SuperScript VILO (Invitrogen). Quantitative PCR was performed using FastStart Essential DNA Green Master (Roche) and analyzed using a LightCycler 96 (Roche). Data are expressed as a fold change by ΔΔCt relative to GAPDH. For in vivo experiments, tissue was immediately frozen, and stored at −80° C. RNA isolation, cDNA synthesis, and qPCR analysis were performed as above.

cAMP = cAMP Assay (cAMP-Glo) in lung fibroblasts; format: cell-based, human; details: IMR-90 lung fibroblasts (FIG. 31F-31H)
Procedure: cAMP Assay: IPF patient derived fibroblasts were plated in EMEM containing 10% FBS overnight. […] 20 minutes prior to cell lysis media was removed and cells were treated with “induction buffer” containing nonselective phosphodiesterase inhibitors and the indicated concentration of compound(s). Luminescence was measured on a Flexstation 3 (Molecular Devices) plate reader.

[3] = patient sample IPF-1, read-out: αSMA intensity (% of DMSO control) IPF-1
[4] = patient sample IPF-2, read-out: αSMA intensity (% of DMSO control) IPF-2
[5] = patient sample IPF-3, read-out: αSMA intensity (% of DMSO control) IPF-3
[6] = patient sample IPF-4, read-out: αSMA intensity (% of DMSO control) IPF-4

verteporfin
effects in models of liver fibrosis [1]: limited beneficial effects

NCCc1ccc(O)c(O)c1 [Dopamine•HCl, Dopamine]
activity at 1 µM (αSMA; [3]): 35.2%
activity at 1 µM (αSMA; [4]): 8.09%
activity at 1 µM (αSMA; [5]): 26.6%
activity at 1 µM (αSMA; [6]): 5.37%
αSMA+ stress fiber formation in IPF-patient derived fibroblasts (αSMA+ stress fibers): reverses αSMA+ stress fiber formation
contractile forces (traction force microscopy) [2]: attenuates IPF fibroblast contractility
YAP/TAZ nuclear localization, low density IPF fibroblasts (YAP/TAZ; tissue culture plastic (FIG. 34A)): inhibits YAP/TAZ nuclear localization

NCC1OC(c2ccccc2)Cc2c1ccc(O)c2O (stereo not drawn) [A 68930•HCl]
activity at 1 µM (αSMA; [3]): 12.4%
activity at 1 µM (αSMA; [4]): 8.11%
activity at 1 µM (αSMA; [5]): 3.25%
activity at 1 µM (αSMA; [6]): 7.35%
profibrotic gene expression in human dermal fibroblasts (human dermal fibroblasts): blocks profibrotic gene expression
Nuclear localization (% of total cells) IPF-1 (YAP/TAZ; patient sample IPF-1, 10 μM, treated 2 hours prior to fixation): 33.13 % of total cells
Nuclear localization (% of total cells) IPF-2 (YAP/TAZ; patient sample IPF-2, 10 μM, treated 2 hours prior to fixation): 30.59 % of total cells
Nuclear localization (% of total cells) IPF-3 (YAP/TAZ; patient sample IPF-3, 10 μM, treated 2 hours prior to fixation): 26.82 % of total cells
Nuclear localization (% of total cells) IPF-4 (YAP/TAZ; patient sample IPF-4, 10 μM, treated 2 hours prior to fixation): 10.26 % of total cells

CN1CCc2cc(Cl)c(O)cc2[C@H]2c3ccccc3CC[C@@H]21 [SCH-39166]
antagonism of DHX's elevation of cAMP, inhibition of YAP/TAZ nuclear localization and of YAP/TAZ target genes (cAMP): block DHX's elevation of cAMP
